{"source": "patent US20260234136A1", "about": "“ISOXAZOLIDINES AS RIPK1 INHIBITORS AND USE THEREOF” (GENZYME CORPORATION, priority 2023, published 2026)", "data": [{"test_system": "U937 cells", "test": "Cellular assay in U937 cells to measure the activity of RIPK1-inhibitors on cell death (necroptosis)", "type": "cell-based", "details": "Homo sapiens, U-937, 50 μM zVAD.fmk and 100 ng/ml recombinant human TNFα, overnight (18 to 24 hrs), MTS readout", "protocol": "Absorbance of formazan was read at 490 nm. The inhibitory activity of the test compound was quantified in a concentration response curve (CRC) experiment.\nCompounds were obtained as 10 mM stock solutions and were diluted 1 to 10 volumes with DMSO to yield a 1 mM solution. From this solution 2 μl were diluted with 998 μl growth medium.\nU937 cells were cultured in RPMI1640 Glutamax and 10% heat inactivated FBS. […] 50 μl of compound dilutions, as described in Cellular assay in U937 cells, were added and the cell suspension incubated overnight (18 to 24 hrs) at 37° C., 5% CO2 in a humidified atmosphere (95% rH).\nCellTiter 96 Aqueous reagent was mixed (100 μl PMS (phenazine methosulfate) solution/2 ml MTS (3-(4,5-[…])-5-(3-carboxymethoxyphenyl)-2-(4-sulfophenyl)-2H-tetrazolium, inner salt) solution) and 20 μl were added per well. After 4 hrs incubation at 37° C. (5% CO2 95% rH) optical density was measured at 490 nm on a microplate reader (Tecan Infinite M1000).\nThe % inhibition is expressed as percentage of the maximal inhibition value obtained in the absence of TNFα/zVAD.fmc.", "units": {"IC50": "µM"}, "values": [{"smiles": "Cc1ncc([C@@H]2CCON2C(=O)C2CCN(c3nccc(C4CCO4)n3)CC2)cc1F", "note": "(single isomer, unassigned) [Example 98]", "IC50": 0.269}, {"smiles": "O=C(C1CCN(c2cc(-c3cccnc3)ncn2)CC1)N1OCC[C@H]1c1cncc(F)c1", "note": "[Example 1, (S)-(3-(5-fluoropyridin-3-yl)isoxazolidin-2-yl)(1-(6-(pyridin-3-yl)pyrimidin-4-yl)piperidin-4-yl)methanone]", "IC50": 0.037}, {"smiles": "O=C1OCCN1c1nc(N2CCC(C(=O)N3OCC[C@H]3c3cnccn3)CC2)ncc1F", "note": "[Example 5, 3-[5-fluoro-2-[4-[(3S)-3-pyrazin-2-ylisoxazolidine-2-carbonyl]-1-piperidyl]pyrimidin-4-yl]oxazolidin-2-one]", "IC50": 0.005}, {"smiles": "Cc1nc([C@@H]2CCON2C(=O)C2CCN(c3cc(-n4ccnc4C)ncn3)CC2)cs1", "note": "[Example 7, [1-[6-(2-methylimidazol-1-yl)pyrimidin-4-yl]-4-piperidyl]-[(3S)-3-(2-methylthiazol-4-yl)isoxazolidin-2-yl]methanone]", "IC50": 0.009}, {"smiles": "Cc1ccc([C@@H]2CCON2C(=O)C2CCN(c3ncc(F)c(-n4cccn4)n3)CC2)cn1", "note": "[Example 10, [1-(5-fluoro-4-pyrazol-1-yl-pyrimidin-2-yl)-4-piperidyl]-[(3S)-3-(6-methyl-3-pyridyl)isoxazolidin-2-yl]methanone]", "IC50": 0.004}, {"smiles": "O=C(C1CCN(c2nc(-c3ncco3)ncc2F)CC1)N1OCC[C@H]1c1cnccn1", "note": "[Example 13, [1-(5-fluoro-2-oxazol-2-yl-pyrimidin-4-yl)-4-piperidyl]-[(3S)-3-pyrazin-2-ylisoxazolidin-2-yl]methanone]", "IC50": 0.027}, {"smiles": "Cc1ccc([C@@H]2CCON2C(=O)C2CCN(c3nccc(-c4ccnn4C)n3)CC2)cn1", "note": "[Example 15, [1-[4-(2-methylpyrazol-3-yl)pyrimidin-2-yl]-4-piperidyl]-[(3S)-3-(6-methyl-3-pyridyl)isoxazolidin-2-yl]methanone]", "IC50": 0.001}, {"smiles": "Cc1cnn(-c2cc(N3CCC(C(=O)N4OCC[C@H]4c4ccc(C)nc4)CC3)ncn2)c1", "note": "[Example 17, [1-[6-(4-methylpyrazol-1-yl)pyrimidin-4-yl]-4-piperidyl]-[(3S)-3-(6-methyl-3-pyridyl)isoxazolidin-2-yl]methanone]", "IC50": 0.039}, {"smiles": "Cc1ccc([C@@H]2CCON2C(=O)C2CCN(c3cc(-c4ccnn4C)ncn3)CC2)cn1", "note": "[Example 18, [1-[6-(2-methylpyrazol-3-yl)pyrimidin-4-yl]-4-piperidyl]-[(3S)-3-(6-methyl-3-pyridyl)isoxazolidin-2-yl]methanone]", "IC50": 0.07}, {"smiles": "Cc1cn(-c2nc(N3CCC(C(=O)N4OCC[C@H]4c4cnccn4)CC3)ncc2F)c(C)n1", "note": "[Example 22, [1-[4-(2,4-dimethylimidazol-1-yl)-5-fluoro-pyrimidin-2-yl]-4-piperidyl]-[(3S)-3-pyrazin-2-ylisoxazolidin-2-yl]methanone]", "IC50": 0.002}, {"smiles": "Cc1nccn1-c1ncnc(N2CCC(C(=O)N3OCC[C@H]3c3cnccn3)CC2)n1", "note": "[Example 26, (S)-(1-(4-(2-methyl-1H-imidazol-1-yl)-1,3,5-triazin-2-yl)piperidin-4-yl)(3-(pyrazin-2-yl)isoxazolidin-2-yl)methanone]", "IC50": 0.005}, {"smiles": "O=C(C1CCN(c2ncc(F)c(-c3cncs3)n2)CC1)N1OCC[C@H]1c1cnccn1", "note": "[Example 27, (S)-(1-(5-fluoro-4-(thiazol-5-yl)pyrimidin-2-yl)piperidin-4-yl)(3-(pyrazin-2-yl)isoxazolidin-2-yl)methanone]", "IC50": 0.001}, {"smiles": "Cn1nccc1-c1cc(N2CCC(C(=O)N3OCC[C@H]3c3cnccn3)CC2)ncn1", "note": "[Example 28, (S)-(1-(6-(1-methyl-1H-pyrazol-5-yl)pyrimidin-4-yl)piperidin-4-yl)(3-(pyrazin-2-yl)isoxazolidin-2-yl)methanone]", "IC50": 0.043}, {"smiles": "O=C(C1CCN(c2ncc(F)c(-n3cccn3)n2)CC1)N1OCC[C@H]1c1cnccn1", "note": "[Example 32, (S)-(1-(5-fluoro-4-(1H-pyrazol-1-yl)pyrimidin-2-yl)piperidin-4-yl)(3-(pyrazin-2-yl)isoxazolidin-2-yl)methanone]", "IC50": 0.001}, {"smiles": "Cc1ccc([C@@H]2CCON2C(=O)C2CCN(c3ncnc(-n4ccnc4C)n3)CC2)cn1", "note": "[Example 35, [1-[4-(2-methylimidazol-1-yl)-1,3,5-triazin-2-yl]piperidin-4-yl]-[(3S)-3-(6-methylpyridin-3-yl)-1,2-oxazolidin-2-yl]methanone]", "IC50": 0.002}, {"smiles": "Cc1cncc([C@@H]2CCON2C(=O)C2CCN(c3nccc(N4CCOC4=O)n3)CC2)c1", "note": "[Example 36, 3-[2-[4-[(3S)-3-(5-methyl-3-pyridyl)isoxazolidine-2-carbonyl]-1-piperidyl]pyrimidin-4-yl]oxazolidin-2-one]", "IC50": 0.025}, {"smiles": "Cn1nccc1-c1cc(N2CC[C@@H](C(=O)N3OCC[C@H]3c3cnccn3)C3(CC3)C2)ncn1", "note": "[Example 39, [(8R)-5-[6-(2-methylpyrazol-3-yl)pyrimidin-4-yl]-5-azaspiro[2.5]octan-8-yl]-[(3S)-3-pyrazin-2-yl-1,2-oxazolidin-2-yl]methanone]", "IC50": 0.02}, {"smiles": "Cc1nc([C@@H]2CCON2C(=O)[C@@H]2CCN(c3cc(-c4ncnn4C)ncn3)CC23CC3)cs1", "note": "[Example 41, [(3S)-3-(2-methyl-1,3-thiazol-4-yl)-1,2-oxazolidin-2-yl]-[(8R)-5-[6-(2-methyl-1,2,4-triazol-3-yl)pyrimidin-4-yl]-5-azaspiro[2.5]octan-8-yl]methanone]", "IC50": 0.044}, {"smiles": "Cc1ncc([C@@H]2CCON2C(=O)C2CCN(c3cc(-c4ncnn4C)ncn3)CC2)cc1F", "note": "[Example 49, [(3S)-3-(5-fluoro-6-methylpyridin-3-yl)-1,2-oxazolidin-2-yl]-[1-[6-(2-methyl-1,2,4-triazol-3-yl)pyrimidin-4-yl]piperidin-4-yl]methanone]", "IC50": 0.015}, {"smiles": "Cc1cncc([C@@H]2CCON2C(=O)C2CCN(c3nccc(N4CCC5(CC5)C4=O)n3)CC2)c1", "note": "[Example 51, 5-[2-[4-[(3S)-3-(5-methylpyridin-3-yl)-1,2-oxazolidine-2-carbonyl]piperidin-1-yl]pyrimidin-4-yl]-5-azaspiro[2.4]heptan-4-one]", "IC50": 0.026}, {"smiles": "Cc1nc([C@@H]2CCON2C(=O)C2CCN(c3nccc(N4CCC5(CC5)C4=O)n3)CC2)co1", "note": "[Example 54, 5-[2-[4-[(3S)-3-(2-methyl-1,3-oxazol-4-yl)-1,2-oxazolidine-2-carbonyl]piperidin-1-yl]pyrimidin-4-yl]-5-azaspiro[2.4]heptan-4-one]", "IC50": 0.051}, {"smiles": "Cc1cnc([C@@H]2CCON2C(=O)C2CCN(c3nccc(N4CCCC4=O)n3)CC2)cn1", "note": "[Example 55, 1-[2-[4-[(3S)-3-(5-methylpyrazin-2-yl)-1,2-oxazolidine-2-carbonyl]piperidin-1-yl]pyrimidin-4-yl]pyrrolidin-2-one]", "IC50": 0.078}, {"smiles": "O=C(C1CCN(c2nccc(N3CCC(F)(F)C3=O)n2)CC1)N1OCC[C@H]1c1cnccn1", "note": "[Example 58, 3,3-difluoro-1-[2-[4-[(3S)-3-pyrazin-2-yl-1,2-oxazolidine-2-carbonyl]piperidin-1-yl]pyrimidin-4-yl]pyrrolidin-2-one]", "IC50": 0.065}, {"smiles": "Cc1ncc([C@@H]2CCON2C(=O)C2CCN(c3nccc(N4CCC(C)(C)C4=O)n3)CC2)cc1F", "note": "[Example 60, 1-[2-[4-[(3S)-3-(5-fluoro-6-methylpyridin-3-yl)-1,2-oxazolidine-2-carbonyl]piperidin-1-yl]pyrimidin-4-yl]-3,3-dimethylpyrrolidin-2-one]", "IC50": 0.506}, {"smiles": "Cc1ncc([C@@H]2CCON2C(=O)C2CCN(c3nccc(N4CCC5(CC5)C4=O)n3)CC2)cc1F", "note": "[Example 61, 5-[2-[4-[(3S)-3-(5-fluoro-6-methylpyridin-3-yl)-1,2-oxazolidine-2-carbonyl]piperidin-1-yl]pyrimidin-4-yl]-5-azaspiro[2.4]heptan-4-one]", "IC50": 0.032}, {"smiles": "CN1CCN(c2ccnc(N3CCC(C(=O)N4OCC[C@H]4c4cncc(F)c4)CC3)n2)C1=O", "note": "[Example 62, 1-[2-[4-[(3S)-3-(5-fluoropyridin-3-yl)-1,2-oxazolidine-2-carbonyl]piperidin-1-yl]pyrimidin-4-yl]-3-methylimidazolidin-2-one]", "IC50": 0.041}, {"smiles": "Cc1ccc([C@@H]2CCON2C(=O)[C@@H]2CCN(c3nccc(N4CCOCC4=O)n3)CC23CC3)cn1", "note": "[Example 63, 4-[2-[(8R)-8-[(3S)-3-(6-methylpyridin-3-yl)-1,2-oxazolidine-2-carbonyl]-5-azaspiro[2.5]octan-5-yl]pyrimidin-4-yl]morpholin-3-one]", "IC50": 0.044}, {"smiles": "Cc1nccn1-c1nc(N2CCC(C(=O)N3OCC[C@H]3c3cncc(F)c3)CC2)ncc1F", "note": "[Example 64, [1-[5-fluoro-4-(2-methylimidazol-1-yl)pyrimidin-2-yl]piperidin-4-yl]-[(3S)-3-(5-fluoropyridin-3-yl)-1,2-oxazolidin-2-yl]methanone]", "IC50": 0.001}, {"smiles": "Cc1ccc([C@@H]2CCON2C(=O)C2CCN(c3nccc(N4CCCC(F)(F)C4=O)n3)CC2)cn1", "note": "[Example 66, 3,3-difluoro-1-[2-[4-[(3S)-3-(6-methylpyridin-3-yl)-1,2-oxazolidine-2-carbonyl]piperidin-1-yl]pyrimidin-4-yl]piperidin-2-one]", "IC50": 3.44}, {"smiles": "Cc1ccc([C@@H]2CCON2C(=O)C2CCN(c3nc(-c4ncco4)ncc3F)CC2)cn1", "note": "[Example 67, [1-[5-fluoro-2-(1,3-oxazol-2-yl)pyrimidin-4-yl]piperidin-4-yl]-[(3S)-3-(6-methylpyridin-3-yl)-1,2-oxazolidin-2-yl]methanone]", "IC50": 0.135}]}]}
